Data as given in patent US10722515B2, “Dual CLK/CDK1 inhibitors for cancer treatment” (SRI INTERNATIONAL, priority 2016, dated 2020).

Key:
[1] = molecular target: T1, MEKK2(h) (Homo sapiens, UniProt Q9Y2U5); test: kinase profile, radiometric assay, MEKK2; type: biochemical
T1 construct: purchased Eurofins, Dundee, Scotland
T1 sequence (Q9Y2U5 1-619): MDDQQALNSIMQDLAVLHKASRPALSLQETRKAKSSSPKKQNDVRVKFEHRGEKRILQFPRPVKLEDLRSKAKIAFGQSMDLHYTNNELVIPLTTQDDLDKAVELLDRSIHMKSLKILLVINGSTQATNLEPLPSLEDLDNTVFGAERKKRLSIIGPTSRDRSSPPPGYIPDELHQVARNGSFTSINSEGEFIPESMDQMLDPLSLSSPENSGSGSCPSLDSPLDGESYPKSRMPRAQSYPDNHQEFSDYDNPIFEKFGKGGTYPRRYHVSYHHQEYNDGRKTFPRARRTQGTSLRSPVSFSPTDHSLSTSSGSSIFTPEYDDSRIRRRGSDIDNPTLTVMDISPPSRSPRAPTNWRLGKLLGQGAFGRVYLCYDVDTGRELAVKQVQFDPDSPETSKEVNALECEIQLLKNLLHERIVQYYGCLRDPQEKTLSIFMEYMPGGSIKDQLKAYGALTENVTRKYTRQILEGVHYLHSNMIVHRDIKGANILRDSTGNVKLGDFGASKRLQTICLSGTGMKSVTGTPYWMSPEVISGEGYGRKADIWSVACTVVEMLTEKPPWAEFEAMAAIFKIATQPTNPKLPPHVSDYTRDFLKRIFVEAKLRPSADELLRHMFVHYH
Protocol: (§1) Enzymatic biochemical activities were evaluated in radiometric protein kinase assays (Eurofins, Dundee, Scotland). Kinases are incubated with buffer, substrate and [γ-^33P]-ATP (specific activity approx. 500 cpm/pmol, concentration as required). The reaction is initiated by the addition of the MgATP mix. After incubation for 40 minutes at room temperature, the reaction is stopped by the addition of 3% phosphoric acid solution. 10 μL of the reaction is then spotted onto a P30 filtermat and washed three times for 5 minutes in 75 mM phosphoric acid and once in methanol prior to drying and scintillation counting.
(§2) All compounds are prepared to 50× final assay concentration in 100% DMSO. Positive control wells contain all components of the reaction with 2% DMSO. Blank wells contain all components of the reaction, with a reference inhibitor replacing the compound of interest. Each kinase is assigned a standard assay concentration of ATP within 20 μM of its apparent KM. Compounds were screened at 1 μM in duplicate or tested at 10 concentrations at half log dilution starting from 10 μM in singlicate. Dose response curves were fitted with four parameter logistic curve to obtain IC50 values. The average coefficient of variation (CV) of the conducted assay is 4.4%.

[2] = molecular target: T2, Abl(h) (Homo sapiens, UniProt P00519); test: kinase profile, radiometric assay, Abl; type: biochemical
T2 construct: purchased Eurofins, Dundee, Scotland
T2 sequence (P00519 whole entry): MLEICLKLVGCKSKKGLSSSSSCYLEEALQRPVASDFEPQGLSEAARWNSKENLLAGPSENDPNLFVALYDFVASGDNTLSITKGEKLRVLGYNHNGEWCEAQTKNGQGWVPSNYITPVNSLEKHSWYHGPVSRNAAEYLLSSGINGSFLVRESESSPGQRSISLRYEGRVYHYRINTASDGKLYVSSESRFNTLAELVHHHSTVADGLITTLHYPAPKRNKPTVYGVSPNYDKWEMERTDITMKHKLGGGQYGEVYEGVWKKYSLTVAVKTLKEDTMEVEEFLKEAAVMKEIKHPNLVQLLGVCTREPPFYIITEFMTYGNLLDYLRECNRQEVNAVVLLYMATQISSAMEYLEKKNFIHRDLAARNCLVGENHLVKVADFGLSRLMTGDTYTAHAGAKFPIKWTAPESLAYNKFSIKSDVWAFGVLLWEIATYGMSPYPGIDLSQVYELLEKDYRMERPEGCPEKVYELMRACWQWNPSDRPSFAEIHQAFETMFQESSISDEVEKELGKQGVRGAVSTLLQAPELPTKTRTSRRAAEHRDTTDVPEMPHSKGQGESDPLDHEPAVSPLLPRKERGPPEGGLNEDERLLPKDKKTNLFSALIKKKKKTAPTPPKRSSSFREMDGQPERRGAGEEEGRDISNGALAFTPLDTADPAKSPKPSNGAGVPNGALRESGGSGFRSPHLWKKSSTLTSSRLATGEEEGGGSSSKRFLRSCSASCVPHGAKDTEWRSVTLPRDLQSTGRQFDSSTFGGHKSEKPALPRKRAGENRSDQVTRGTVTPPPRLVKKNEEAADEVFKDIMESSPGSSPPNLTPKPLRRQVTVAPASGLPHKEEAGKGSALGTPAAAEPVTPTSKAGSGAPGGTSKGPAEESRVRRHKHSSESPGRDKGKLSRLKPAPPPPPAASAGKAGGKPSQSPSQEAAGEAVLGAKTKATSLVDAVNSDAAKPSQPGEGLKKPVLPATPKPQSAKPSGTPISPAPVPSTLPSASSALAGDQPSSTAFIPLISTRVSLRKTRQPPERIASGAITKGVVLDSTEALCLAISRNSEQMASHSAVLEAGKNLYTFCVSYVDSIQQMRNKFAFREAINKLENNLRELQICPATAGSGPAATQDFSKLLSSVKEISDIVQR
Protocol: as §1, §2

[3] = molecular target: T3, Plk1(h) (Homo sapiens, UniProt P53350); test: kinase profile, radiometric assay, Plk1; type: biochemical
T3 construct: purchased Eurofins, Dundee, Scotland
T3 sequence (P53350 whole entry): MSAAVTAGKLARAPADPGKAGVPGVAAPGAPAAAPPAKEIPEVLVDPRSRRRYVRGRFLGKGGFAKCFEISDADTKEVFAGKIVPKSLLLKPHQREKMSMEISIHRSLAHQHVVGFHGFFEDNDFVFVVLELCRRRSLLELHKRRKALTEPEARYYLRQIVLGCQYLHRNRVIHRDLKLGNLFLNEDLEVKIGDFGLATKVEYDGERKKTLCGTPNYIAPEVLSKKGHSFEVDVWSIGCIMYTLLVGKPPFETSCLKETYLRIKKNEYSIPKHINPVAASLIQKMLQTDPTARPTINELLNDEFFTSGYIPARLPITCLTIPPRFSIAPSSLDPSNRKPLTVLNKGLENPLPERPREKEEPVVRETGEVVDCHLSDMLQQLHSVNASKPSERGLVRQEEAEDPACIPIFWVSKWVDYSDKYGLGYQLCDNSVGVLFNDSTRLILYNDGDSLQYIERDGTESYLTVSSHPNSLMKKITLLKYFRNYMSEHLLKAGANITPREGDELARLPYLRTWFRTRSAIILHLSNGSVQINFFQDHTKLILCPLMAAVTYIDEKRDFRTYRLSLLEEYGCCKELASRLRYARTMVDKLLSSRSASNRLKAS
Protocol: as §1, §2

[4] = molecular target: T4, Aurora-B(h) (Homo sapiens, UniProt Q96GD4); test: kinase profile, radiometric assay, Aurora-B; type: biochemical
T4 construct: purchased Eurofins, Dundee, Scotland
T4 sequence (Q96GD4 whole entry): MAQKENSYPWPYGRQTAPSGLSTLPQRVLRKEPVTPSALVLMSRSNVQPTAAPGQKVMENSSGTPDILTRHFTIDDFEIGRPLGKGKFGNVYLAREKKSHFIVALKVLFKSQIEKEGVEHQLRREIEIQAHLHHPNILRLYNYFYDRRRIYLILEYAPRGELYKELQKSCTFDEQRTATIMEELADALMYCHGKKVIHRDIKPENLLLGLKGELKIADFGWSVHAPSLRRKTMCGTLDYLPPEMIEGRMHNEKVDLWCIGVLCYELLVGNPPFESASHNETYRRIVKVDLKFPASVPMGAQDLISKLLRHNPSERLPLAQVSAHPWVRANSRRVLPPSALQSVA
Protocol: as §1, §2

[5] = molecular target: T5, CDK6/cyclinD3(h) (Homo sapiens, UniProt Q00534); test: radiometric protein kinase assay, CDK6; type: biochemical; settings: enzyme inhibition, ATP 20 μM
T5 construct: purchased Eurofins, Dundee, Scotland
T5 sequence (Q00534 whole entry): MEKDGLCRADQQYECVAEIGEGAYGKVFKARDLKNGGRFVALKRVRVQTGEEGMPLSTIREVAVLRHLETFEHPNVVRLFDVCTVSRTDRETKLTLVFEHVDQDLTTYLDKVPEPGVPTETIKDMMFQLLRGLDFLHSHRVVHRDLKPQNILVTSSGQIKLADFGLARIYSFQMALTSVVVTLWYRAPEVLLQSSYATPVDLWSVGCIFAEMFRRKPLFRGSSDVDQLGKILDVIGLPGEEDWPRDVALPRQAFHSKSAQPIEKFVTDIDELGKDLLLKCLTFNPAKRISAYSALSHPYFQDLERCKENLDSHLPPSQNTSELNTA
T5 sequence (P30281 whole entry partner): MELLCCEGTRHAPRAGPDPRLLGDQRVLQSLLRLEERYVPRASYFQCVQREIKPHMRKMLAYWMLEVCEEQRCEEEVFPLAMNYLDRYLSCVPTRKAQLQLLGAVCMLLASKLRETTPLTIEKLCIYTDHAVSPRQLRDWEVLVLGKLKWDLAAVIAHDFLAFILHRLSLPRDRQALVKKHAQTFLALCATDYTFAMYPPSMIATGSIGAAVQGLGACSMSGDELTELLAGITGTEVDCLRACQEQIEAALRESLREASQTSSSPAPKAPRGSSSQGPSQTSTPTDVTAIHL
Protocol: as §1, §2

[6] = test system: MDM2 alternate splicing in Rh-18 cells; test: Rh-18 MDM2 RT-PCR gel-based assay (orthogonal secondary assay); type: cell-based; settings: 10 μM, 8 h
Protocol: These hits were then subjected to a confirmatory assay in the Rh-18 MDM2 RT-PCR gel-based assay at a concentration of 10 μM.
Referring to FIG. 6, cells were exposed to 0.5% DMSO, 0.2 μM sudemycin D6 or […] CGP-74514A for 8 h. Total RNA was extracted by RNeasy Mini Kit (Qiagen). High capacity RNA-to-cDNA kit (Life technologies) was used to convert the RNA to cDNA.
Referring to FIG. 7, cells were exposed to 0.5% DMSO (lane 1), 1 μM sudemycin D6 (lane 2), 10 μM Compound 14 (lane 3), and 10 μM Compound 15 (lane 4) for 8 h. The total RNA was extracted by RNeasy Mini Kit (Qiagen). High capacity RNA-to-cDNA kit (Life technologies) was used to convert the RNA to cDNA. […] Ubiquitin transcripts (165 bp) in the same cells were used as a control (Fan et al. (2011) ACS Chem. Biol. 6: 582-9).

[7] = molecular target: T6, CDK4/cyclinD3(h) (Homo sapiens, UniProt P11802); test: radiometric protein kinase assay, CDK4; type: biochemical; settings: enzyme inhibition, ATP 20 μM
T6 construct: purchased Eurofins, Dundee, Scotland
T6 sequence (P11802 whole entry): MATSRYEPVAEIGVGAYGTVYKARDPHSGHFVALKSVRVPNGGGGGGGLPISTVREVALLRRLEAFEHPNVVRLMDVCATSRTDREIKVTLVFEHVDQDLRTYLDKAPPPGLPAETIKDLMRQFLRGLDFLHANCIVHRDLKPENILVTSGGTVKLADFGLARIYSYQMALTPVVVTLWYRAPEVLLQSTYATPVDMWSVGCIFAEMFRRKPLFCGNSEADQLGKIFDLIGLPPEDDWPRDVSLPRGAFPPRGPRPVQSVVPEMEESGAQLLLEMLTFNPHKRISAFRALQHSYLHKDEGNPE
T6 sequence (P30281 whole entry partner): as the sequence (P30281 whole entry partner) above
Protocol: as §1, §2

[8] = molecular target: T7, CLK3(h) (Homo sapiens, UniProt P49761); test: radiometric protein kinase assay, CLK3; type: biochemical; settings: enzyme inhibition, radiometric, ATP 90 μM; read-out: IC50 (nM) CLK3
T7 construct: purchased Eurofins, Dundee, Scotland
T7 sequence (P49761 whole entry): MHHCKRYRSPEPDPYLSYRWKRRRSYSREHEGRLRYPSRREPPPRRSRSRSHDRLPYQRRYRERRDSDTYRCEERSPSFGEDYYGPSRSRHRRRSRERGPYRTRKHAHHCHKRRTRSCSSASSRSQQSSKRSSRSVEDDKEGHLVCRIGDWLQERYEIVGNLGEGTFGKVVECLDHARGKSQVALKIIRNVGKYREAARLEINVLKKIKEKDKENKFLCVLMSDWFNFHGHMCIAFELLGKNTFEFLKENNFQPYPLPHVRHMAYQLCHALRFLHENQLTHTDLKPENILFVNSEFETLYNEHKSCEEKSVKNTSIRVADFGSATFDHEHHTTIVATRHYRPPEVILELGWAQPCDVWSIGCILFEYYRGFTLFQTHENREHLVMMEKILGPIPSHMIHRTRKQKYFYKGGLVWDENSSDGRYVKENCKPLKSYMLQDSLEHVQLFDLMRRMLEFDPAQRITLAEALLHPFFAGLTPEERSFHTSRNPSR
Protocol: as §1, §2

[9] = molecular target: T8, CDK1/cyclinB(h) (Homo sapiens, UniProt P06493); test: radiometric protein kinase assay, CDK1; type: biochemical; settings: enzyme inhibition, ATP 45 μM
T8 construct: purchased Eurofins, Dundee, Scotland
T8 sequence (P06493 whole entry): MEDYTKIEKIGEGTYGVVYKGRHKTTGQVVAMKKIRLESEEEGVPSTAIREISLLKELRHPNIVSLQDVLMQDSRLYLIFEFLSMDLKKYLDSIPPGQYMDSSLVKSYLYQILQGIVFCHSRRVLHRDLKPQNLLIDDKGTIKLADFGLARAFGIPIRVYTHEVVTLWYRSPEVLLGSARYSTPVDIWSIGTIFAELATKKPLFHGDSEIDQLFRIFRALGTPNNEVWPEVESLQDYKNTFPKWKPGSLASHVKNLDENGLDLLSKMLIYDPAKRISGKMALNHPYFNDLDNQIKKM
T8 sequence (P14635 whole entry partner): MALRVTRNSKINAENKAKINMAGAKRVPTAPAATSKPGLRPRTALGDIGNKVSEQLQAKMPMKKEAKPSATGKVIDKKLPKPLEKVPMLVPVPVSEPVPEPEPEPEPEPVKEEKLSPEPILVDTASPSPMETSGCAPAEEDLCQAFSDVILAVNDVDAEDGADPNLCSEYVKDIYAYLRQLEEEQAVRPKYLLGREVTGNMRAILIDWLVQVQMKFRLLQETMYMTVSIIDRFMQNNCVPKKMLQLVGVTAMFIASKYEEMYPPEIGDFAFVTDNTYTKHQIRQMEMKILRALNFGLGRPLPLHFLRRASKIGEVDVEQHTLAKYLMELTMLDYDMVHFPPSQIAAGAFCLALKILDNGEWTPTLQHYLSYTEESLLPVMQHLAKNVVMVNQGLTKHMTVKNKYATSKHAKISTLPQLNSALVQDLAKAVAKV
Protocol: as §1, §2

[10] = test system: 22 oncogenic kinases; test: kinase profiling against 22 oncogenic kinases; type: biochemical, human; settings: 1 μM in duplicate
Protocol: as §1, §2

SMILES | inhibition at 1 µM [1] | inhibition at 1 µM [2] | inhibition at 1 µM [3] | inhibition at 1 µM [4] | IC50 [5] | activity in the Rh-18 MDM2 RT-PCR gel-based confirmatory assay [6] | IC50 [7] | IC50 [8] | IC50 [9] | inhibition against the entire 22 diverse kinase panel [10]
CC(C)n1cnc2c(Nc3cccc(Cl)c3)nc(N[C@@H]3CCCC[C@@H]3N)nc21 [Compound 9, N^2-((1R,2S)-2-Aminocyclohexyl)-N^6-(3-Chlorophenyl)-9-Isopropyl-9H-Purine-2,6-Diamine] | 18% | 2% | 9% | -16% |  |  |  |  |  | 
CC(C)n1cnc2c(Nc3cc(N)cc(Cl)c3)nc(NC3CCCCC3N)nc21 (racemic) [Compound 14, Racemic N^6-Cis-(3-Amino-5-Chlorophenyl)-N^2-(2-Aminocyclohexyl)-9-Isopropyl-9H-Purine-2,6-Diamine] | 48% | 8% | 60% | -16% | > 1000 nM | confirmation | > 1000 nM | > 1000 nM | 973 nM | 
CC(C)n1cnc2c(Nc3cccc(Cl)c3)nc(N[C@H]3CCCC[C@@H]3N)nc21 [Compound 8, N^2-((1S,2S)-2-Aminocyclohexyl)-V-(3-Chlorophenyl)-9-Isopropyl-9H-Purine-2,6-Diamine] | 47% | -2% | 49% | -15% |  |  |  |  |  | < 50%
